Assays:
BR:MCF7 = tested on: BR:MCF7; set-up: method as in earlier work; conditions: NCI-60 panel; ref [4],[5],[6],[7]; cited from earlier work
BR:HS 578T = tested on: BR:HS 578T; set-up: method as in earlier work; conditions: NCI-60 panel; ref [4],[5],[6],[7]; cited from earlier work
CNS:SNB-19 = tested on: CNS:SNB-19; set-up: method as in earlier work; conditions: NCI-60 panel; ref [4],[5],[6],[7]; cited from earlier work
LE:HL-60(TB) = tested on: LE:HL-60(TB); set-up: method as in earlier work; conditions: NCI-60 panel; ref [4],[5],[6],[7]; cited from earlier work
ME:MDA-MB-435 = tested on: ME:MDA-MB-435; set-up: method as in earlier work; conditions: NCI-60 panel; ref [4],[5],[6],[7]; cited from earlier work
OV:OVCAR-3 = tested on: OV:OVCAR-3; set-up: method as in earlier work; conditions: NCI-60 panel; ref [4],[5],[6],[7]; cited from earlier work
OV:SK-OV-3 = tested on: OV:SK-OV-3; set-up: method as in earlier work; conditions: NCI-60 panel; ref [4],[5],[6],[7]; cited from earlier work
OV:NCI/ADR-RES = tested on: OV:NCI/ADR-RES; set-up: method as in earlier work; conditions: NCI-60 panel; ref [4],[5],[6],[7]; cited from earlier work
RE:RXF 393 = tested on: RE:RXF 393; set-up: method as in earlier work; conditions: NCI-60 panel; ref [4],[5],[6],[7]; cited from earlier work
RE:UO-31 = tested on: RE:UO-31; set-up: method as in earlier work; conditions: NCI-60 panel; ref [4],[5],[6],[7]; cited from earlier work
CCKBR = CCKBR (Homo sapiens, UniProt P32239); test: gpcrMAX PathHunter beta-arrestin
Chain of CCKBR (P32239 whole entry): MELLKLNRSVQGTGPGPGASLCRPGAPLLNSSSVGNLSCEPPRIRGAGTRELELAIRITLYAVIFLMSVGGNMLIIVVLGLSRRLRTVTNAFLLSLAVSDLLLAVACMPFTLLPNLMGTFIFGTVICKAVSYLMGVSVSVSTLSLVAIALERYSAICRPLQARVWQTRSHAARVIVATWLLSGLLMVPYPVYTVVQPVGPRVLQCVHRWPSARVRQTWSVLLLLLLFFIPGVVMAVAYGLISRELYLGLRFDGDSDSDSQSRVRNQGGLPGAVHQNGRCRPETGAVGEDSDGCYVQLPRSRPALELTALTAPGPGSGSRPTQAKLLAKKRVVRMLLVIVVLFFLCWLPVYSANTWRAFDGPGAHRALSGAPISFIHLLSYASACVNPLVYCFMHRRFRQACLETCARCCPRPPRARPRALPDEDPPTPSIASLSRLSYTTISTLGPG

CCR5 = CCR5 (Homo sapiens, UniProt P51681); test: gpcrMAX PathHunter beta-arrestin
Chain of CCR5 (P51681 whole entry): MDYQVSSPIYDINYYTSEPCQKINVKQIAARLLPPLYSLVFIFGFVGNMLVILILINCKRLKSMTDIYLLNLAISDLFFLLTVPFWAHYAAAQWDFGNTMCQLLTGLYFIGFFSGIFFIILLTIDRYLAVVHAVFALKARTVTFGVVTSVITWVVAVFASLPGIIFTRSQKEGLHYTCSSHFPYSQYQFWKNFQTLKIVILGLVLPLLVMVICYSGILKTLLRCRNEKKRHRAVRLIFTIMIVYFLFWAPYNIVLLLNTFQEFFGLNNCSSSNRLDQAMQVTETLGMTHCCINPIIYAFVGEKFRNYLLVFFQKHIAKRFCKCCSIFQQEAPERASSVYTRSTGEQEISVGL

CHRM1 = CHRM1 (Homo sapiens, UniProt P11229); test: gpcrMAX PathHunter beta-arrestin
Chain of CHRM1 (P11229 whole entry): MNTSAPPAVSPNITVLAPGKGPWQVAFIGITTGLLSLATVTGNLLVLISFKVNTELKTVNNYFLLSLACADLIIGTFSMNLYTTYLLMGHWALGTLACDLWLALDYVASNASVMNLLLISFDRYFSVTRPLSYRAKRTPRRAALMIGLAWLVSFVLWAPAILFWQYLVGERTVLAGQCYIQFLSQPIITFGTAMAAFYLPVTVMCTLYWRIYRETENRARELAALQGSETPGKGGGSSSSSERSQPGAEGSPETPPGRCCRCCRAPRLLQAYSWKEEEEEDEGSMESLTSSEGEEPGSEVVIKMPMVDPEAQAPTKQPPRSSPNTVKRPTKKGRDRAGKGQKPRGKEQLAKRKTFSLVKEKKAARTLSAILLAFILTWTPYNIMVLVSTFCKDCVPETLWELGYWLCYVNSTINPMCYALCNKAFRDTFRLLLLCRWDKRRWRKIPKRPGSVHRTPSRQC

CHRM2 = CHRM2 (Homo sapiens, UniProt P08172); test: gpcrMAX PathHunter beta-arrestin
CMKLR1 = CMKLR1 (Homo sapiens, UniProt Q99788); test: gpcrMAX PathHunter beta-arrestin
Chain of CMKLR1 (Q99788 whole entry): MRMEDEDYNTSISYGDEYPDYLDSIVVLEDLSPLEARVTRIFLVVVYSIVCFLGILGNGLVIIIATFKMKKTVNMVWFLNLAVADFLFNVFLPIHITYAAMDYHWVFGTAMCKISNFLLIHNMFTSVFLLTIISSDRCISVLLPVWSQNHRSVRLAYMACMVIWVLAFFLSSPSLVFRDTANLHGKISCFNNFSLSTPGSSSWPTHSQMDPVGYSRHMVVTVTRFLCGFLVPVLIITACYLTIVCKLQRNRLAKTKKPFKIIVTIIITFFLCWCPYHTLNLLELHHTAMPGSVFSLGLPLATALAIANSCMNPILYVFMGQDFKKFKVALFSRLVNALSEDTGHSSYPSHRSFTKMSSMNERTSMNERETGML

CRHR1 = CRHR1 (Homo sapiens, UniProt P34998); test: gpcrMAX PathHunter beta-arrestin
Chain of CRHR1 (P34998 24-415): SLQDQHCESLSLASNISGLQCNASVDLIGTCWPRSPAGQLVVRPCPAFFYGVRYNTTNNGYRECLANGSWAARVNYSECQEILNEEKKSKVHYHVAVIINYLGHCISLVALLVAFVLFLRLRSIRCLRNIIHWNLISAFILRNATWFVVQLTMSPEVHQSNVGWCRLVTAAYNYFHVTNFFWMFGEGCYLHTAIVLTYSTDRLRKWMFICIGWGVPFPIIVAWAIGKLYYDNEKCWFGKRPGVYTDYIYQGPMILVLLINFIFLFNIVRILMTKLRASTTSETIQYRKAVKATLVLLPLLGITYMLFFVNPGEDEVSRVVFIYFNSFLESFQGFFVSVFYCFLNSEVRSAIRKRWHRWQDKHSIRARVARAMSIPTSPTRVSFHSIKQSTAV

CRTH2 = CRTH2 (Homo sapiens, UniProt Q9Y5Y4); test: gpcrMAX PathHunter beta-arrestin
EDG6 = EDG6 (Homo sapiens, UniProt O95977); test: gpcrMAX PathHunter beta-arrestin
Chain of EDG6 (O95977 whole entry): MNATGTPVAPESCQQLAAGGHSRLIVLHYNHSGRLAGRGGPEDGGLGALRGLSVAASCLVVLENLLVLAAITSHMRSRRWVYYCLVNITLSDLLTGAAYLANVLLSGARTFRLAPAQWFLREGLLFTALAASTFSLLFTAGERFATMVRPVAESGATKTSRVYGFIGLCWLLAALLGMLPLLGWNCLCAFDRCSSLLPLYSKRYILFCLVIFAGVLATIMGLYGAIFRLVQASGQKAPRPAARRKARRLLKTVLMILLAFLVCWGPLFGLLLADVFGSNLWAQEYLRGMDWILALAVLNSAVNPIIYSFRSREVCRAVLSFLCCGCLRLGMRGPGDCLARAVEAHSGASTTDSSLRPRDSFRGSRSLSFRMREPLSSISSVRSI

EDG7 = EDG7 (Homo sapiens, UniProt Q9UBY5); test: gpcrMAX PathHunter beta-arrestin
Chain of EDG7 (Q9UBY5 whole entry): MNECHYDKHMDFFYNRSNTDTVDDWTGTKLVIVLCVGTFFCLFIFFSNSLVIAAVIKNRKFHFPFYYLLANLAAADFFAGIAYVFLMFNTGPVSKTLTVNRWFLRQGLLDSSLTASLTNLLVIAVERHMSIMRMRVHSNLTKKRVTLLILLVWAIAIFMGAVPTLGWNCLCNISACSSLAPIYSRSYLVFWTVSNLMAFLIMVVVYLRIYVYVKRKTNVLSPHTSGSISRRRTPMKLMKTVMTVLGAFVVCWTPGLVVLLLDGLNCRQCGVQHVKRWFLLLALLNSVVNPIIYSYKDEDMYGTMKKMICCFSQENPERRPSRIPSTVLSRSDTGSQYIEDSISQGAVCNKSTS

F2RL3 = F2RL3 (Homo sapiens, UniProt Q96RI0); test: gpcrMAX PathHunter beta-arrestin
Chain of F2RL3 (Q96RI0 18-385): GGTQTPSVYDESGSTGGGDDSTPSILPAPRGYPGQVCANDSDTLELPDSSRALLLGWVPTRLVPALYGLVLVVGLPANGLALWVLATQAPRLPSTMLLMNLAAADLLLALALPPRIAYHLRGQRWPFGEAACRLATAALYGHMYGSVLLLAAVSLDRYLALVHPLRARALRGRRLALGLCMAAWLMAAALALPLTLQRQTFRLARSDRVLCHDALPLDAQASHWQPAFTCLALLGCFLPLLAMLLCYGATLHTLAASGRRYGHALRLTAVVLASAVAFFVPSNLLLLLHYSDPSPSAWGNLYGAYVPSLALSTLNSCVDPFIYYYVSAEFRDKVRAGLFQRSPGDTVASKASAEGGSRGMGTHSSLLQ

FPRL1 = FPRL1 (Homo sapiens, UniProt P25090); test: gpcrMAX PathHunter beta-arrestin
Chain of FPRL1 (P25090 whole entry): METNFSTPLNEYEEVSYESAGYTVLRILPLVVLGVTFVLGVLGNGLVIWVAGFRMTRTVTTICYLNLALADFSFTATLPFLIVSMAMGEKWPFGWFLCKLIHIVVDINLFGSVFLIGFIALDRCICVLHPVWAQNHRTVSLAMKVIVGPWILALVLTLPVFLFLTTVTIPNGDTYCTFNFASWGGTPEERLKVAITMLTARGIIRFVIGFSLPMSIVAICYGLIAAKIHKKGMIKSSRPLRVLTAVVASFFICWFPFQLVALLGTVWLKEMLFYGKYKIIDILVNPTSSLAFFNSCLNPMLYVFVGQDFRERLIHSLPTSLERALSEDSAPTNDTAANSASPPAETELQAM

GRPR = GRPR (Homo sapiens, UniProt P30550); test: gpcrMAX PathHunter beta-arrestin
Chain of GRPR (P30550 whole entry): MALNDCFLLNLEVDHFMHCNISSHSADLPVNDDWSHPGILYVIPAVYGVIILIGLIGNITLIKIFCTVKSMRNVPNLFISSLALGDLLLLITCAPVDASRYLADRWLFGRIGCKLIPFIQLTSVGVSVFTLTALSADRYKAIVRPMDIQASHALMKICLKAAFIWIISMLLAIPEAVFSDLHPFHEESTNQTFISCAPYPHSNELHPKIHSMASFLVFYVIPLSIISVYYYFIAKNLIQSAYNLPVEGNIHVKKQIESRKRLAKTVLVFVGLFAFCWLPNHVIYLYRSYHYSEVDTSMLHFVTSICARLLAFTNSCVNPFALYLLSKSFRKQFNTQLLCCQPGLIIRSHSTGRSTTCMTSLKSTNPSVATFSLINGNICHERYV

MC4R = MC4R (Homo sapiens, UniProt P32245); test: gpcrMAX PathHunter beta-arrestin
Chain of MC4R (P32245 whole entry): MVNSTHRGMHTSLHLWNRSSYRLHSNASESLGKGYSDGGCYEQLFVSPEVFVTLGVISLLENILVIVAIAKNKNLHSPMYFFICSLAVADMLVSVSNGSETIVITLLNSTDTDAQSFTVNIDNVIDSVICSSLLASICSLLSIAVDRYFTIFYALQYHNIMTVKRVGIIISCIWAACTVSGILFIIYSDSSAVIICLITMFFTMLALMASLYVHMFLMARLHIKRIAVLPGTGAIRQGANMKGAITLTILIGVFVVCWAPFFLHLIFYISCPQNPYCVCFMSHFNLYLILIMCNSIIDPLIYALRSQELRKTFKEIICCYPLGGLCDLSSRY

NPY2R = NPY2R (Homo sapiens, UniProt P49146); test: gpcrMAX PathHunter beta-arrestin
P2RY12 = P2RY12 (Homo sapiens, UniProt Q9H244); test: gpcrMAX PathHunter beta-arrestin
Chain of P2RY12 (Q9H244 whole entry, one chain of several): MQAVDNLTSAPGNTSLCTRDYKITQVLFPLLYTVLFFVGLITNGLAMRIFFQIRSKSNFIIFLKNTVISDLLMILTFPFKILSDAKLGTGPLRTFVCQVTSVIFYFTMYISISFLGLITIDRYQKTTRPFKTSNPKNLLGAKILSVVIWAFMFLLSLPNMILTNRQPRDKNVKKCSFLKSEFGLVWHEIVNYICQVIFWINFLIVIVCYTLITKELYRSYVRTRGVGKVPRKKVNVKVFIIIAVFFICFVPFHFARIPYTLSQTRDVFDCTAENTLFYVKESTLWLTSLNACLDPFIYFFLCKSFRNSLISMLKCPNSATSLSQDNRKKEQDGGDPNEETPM

P2RY4 = P2RY4 (Homo sapiens, UniProt P51582); test: gpcrMAX PathHunter beta-arrestin
Chain of P2RY4 (P51582 whole entry): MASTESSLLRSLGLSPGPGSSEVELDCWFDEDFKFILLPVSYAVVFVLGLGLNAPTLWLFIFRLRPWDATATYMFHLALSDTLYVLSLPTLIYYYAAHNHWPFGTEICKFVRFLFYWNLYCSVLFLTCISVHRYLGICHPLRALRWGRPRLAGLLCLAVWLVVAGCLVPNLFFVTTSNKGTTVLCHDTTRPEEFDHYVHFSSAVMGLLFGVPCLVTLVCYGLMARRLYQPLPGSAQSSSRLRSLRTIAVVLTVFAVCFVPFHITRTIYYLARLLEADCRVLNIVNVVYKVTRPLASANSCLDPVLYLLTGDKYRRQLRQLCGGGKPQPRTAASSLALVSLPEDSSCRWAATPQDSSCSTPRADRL

TACR2 = TACR2 (Homo sapiens, UniProt P21452); test: gpcrMAX PathHunter beta-arrestin
TACR3 = TACR3 (Homo sapiens, UniProt P29371); test: gpcrMAX PathHunter beta-arrestin

## Cc1c(Cl)cccc1NC(=O)c1sc2nc3c(cc2c1N)C(=O)CCC3 [Compound 1]
BR:MCF7
  GI50: 46.4 nM
BR:HS 578T
  GI50: 48.2 nM
CNS:SNB-19
  GI50: 70.1 nM
LE:HL-60(TB)
  GI50: 103 nM
ME:MDA-MB-435
  GI50: 18.7 nM
OV:OVCAR-3
  GI50: 48.9 nM
OV:SK-OV-3
  GI50: 60.6 nM
OV:NCI/ADR-RES
  GI50: 46.3 nM
RE:RXF 393
  GI50: 41.8 nM
RE:UO-31
  GI50: 73.1 nM
CCKBR
  inhibition at 10 µM: 12%
CCR5
  inhibition at 10 µM: 11%
CHRM1
  inhibition at 10 µM: 0%
CHRM2
  inhibition at 10 µM: -14%
CMKLR1
  inhibition at 10 µM: 14%
CRHR1
  inhibition at 10 µM: 20%
CRTH2
  inhibition at 10 µM: 13%
EDG6
  inhibition at 10 µM: -6%
EDG7
  inhibition at 10 µM: -8%
F2RL3
  inhibition at 10 µM: 9%
FPRL1
  inhibition at 10 µM: 11%
GRPR
  inhibition at 10 µM: 11%
MC4R
  inhibition at 10 µM: -42%
NPY2R
  inhibition at 10 µM: -9%
P2RY12
  inhibition at 10 µM: -25%
P2RY12; antagonist mode, 10 µM
  % Inhibition: no antagonist modulation was observed
P2RY4
  inhibition at 10 µM: -16%
TACR2
  inhibition at 10 µM: 14%
TACR3
  inhibition at 10 µM: 5%
